Measurements published in US20150337013A1, “NOVEL ANTIBACTERIAL AGENTS FOR THE TREATMENT OF GRAM POSITIVE INFECTIONS” (priority 2008, published 2015).
Where two headings read alike, the source gives them in different places.

Experiments:
[1] = test system: Staphylococcus aureus SAU.42 (ATCC 29213); assay type: cell-based
Method: (§1) Compounds according to Formula I were tested for antimicrobial activity against a panel of organisms. Aerobic organisms, Staphylococcus aureus, Enterococcus faecalis and E. faecium, were tested by broth microdilution according to Clinical and Laboratory Standards Institute (CLSI) document M7-A7 (Clinical and Laboratory Standards Institute. Methods for Dilution Antimicrobial Susceptibility Tests for Bacteria that Grow Aerobically; Approved Standard—Seventh Edition. CLSI document M7-A7 [ISBN 1-56238-587-9]. Clinical and Laboratory Standards Institute, 940 West Valley Road, Suite 1400, Wayne, Pa. 19087-1898 USA, 2006) with modifications as described below. Mueller Hinton Broth (MHBc) was supplemented with 50 mg/L calcium (equivalent to human physiological levels of calcium) and assay plates were incubated 18-20 hours at 37° C. with aeration (200 rpm).
(§2) In all cases the final concentration of dimethyl sulfoxide incubated with cells is less than or equal to 1%. For minimum inhibitory concentration (MIC) calculations, 2-fold dilutions of compounds were added to wells of a microtiter plate containing 5×10^5 bacteria in a final volume of 100 μL of media. Following incubation, (18-20 hours at 37° C. with aeration at 200 rpm) growth was confirmed visually by placing plates over a viewing apparatus (stand with a mirror underneath) and then the optical density (OD600) was measured using a SpectraMax 340PC^384 plate reader. Growth was defined as turbidity that could be detected with the naked eye or achieving minimum OD600of 0.1. MIC values (in μg/mL) were defined as the lowest concentration producing no visible turbidity.

[2] = test system: Enterococcus faecium EFM.384, Daptomycin resistant mutant (14-A); assay type: cell-based; conditions: MHBc with 50 mg/L calcium, 18-20 hours at 37° C.
Method: as §1, §2

[3] = test system: Enterococcus faecalis EFS.312, Daptomycin resistant mutant (EFA); assay type: cell-based; conditions: MHBc with 50 mg/L calcium, 18-20 hours at 37° C.
Method: as §1, §2

[4] = test system: Staphylococcus aureus SAU.399 (ATCC 43300), Methicillin and Oxacillin Resistant; assay type: cell-based; conditions: ATCC 43300
Method: as §1, §2

[5] = test system: Enterococcus faecalis EFS.201 (ATCC 49452); assay type: cell-based
Method: as §1, §2

[6] = test system: Enterococcus faecium EFM.14 (ATCC 6569); assay type: cell-based
Method: as §1, §2

[7] = test system: Staphylococcus aureus SAU.278, Daptomycin resistant mutant (D10); assay type: cell-based; conditions: MHBc with 50 mg/L calcium, 18-20 hours at 37° C.
Method: as §1, §2

[8] = MHBc with 50 mg/L calcium, 18-20 hours at 37° C.

Compound	Sa42 MIC ([1]; ATCC 29213) [µg/mL]	Efm384 MIC [2] [µg/mL]	Efs312 MIC [3] [µg/mL]	Sa399 MIC [4] [µg/mL]	Efs201 MIC ([5]; ATCC 49452) [µg/mL]	Efm14 MIC ([6]; ATCC 6569) [µg/mL]	Sa278 MIC [7] [µg/mL]	C. diff MIC90 (Clostridium difficile) [µg/mL]	Sa42 MIC [1, 8] [µg/mL]	Efs201 MIC [5, 8] [µg/mL]	Efm14 MIC [6, 8] [µg/mL]
CCCCCCCC(C)C(=O)N[C@@H](Cc1c[nH]c2ccccc12)C(=O)N[C@H](CC(N)=O)C(=O)N[C@@H](CC(=O)O)C(=O)N[C@@H]1C(=O)NCC(=O)N[C@@H](CCCN)C(=O)N[C@@H](CC(=O)O)C(=O)N[C@H](C)C(=O)N[C@@H](CC(=O)O)C(=O)NCC(=O)N[C@H](CO)C(=O)N[C@@H]([C@H](C)CC(=O)O)C(=O)N[C@@H](CC(=O)c2ccccc2N)C(=O)O[C@@H]1C (some centres unmarked) [Compound 13]	2	>32	>32	1	16	16	32	–	–	–	–
CCCSc1ccc(-c2csc(C(=O)N[C@@H](Cc3c[nH]c4ccccc34)C(=O)N[C@H](CC(N)=O)C(=O)N[C@@H](CC(=O)O)C(=O)N[C@@H]3C(=O)NCC(=O)N[C@@H](CCCN)C(=O)N[C@@H](CC(=O)O)C(=O)N[C@H](C)C(=O)N[C@@H](CC(=O)O)C(=O)NCC(=O)N[C@H](CO)C(=O)N[C@@H]([C@H](C)CC(=O)O)C(=O)N[C@@H](CC(=O)c4ccccc4N)C(=O)O[C@@H]3C)c2)cc1 [Compound 56]	2	32	>32	2	8	8	8	–	–	–	–
CCCCCCCCCCCC(=O)N[C@@H](Cc1c[nH]c2ccccc12)C(=O)N[C@H](CC(N)=O)C(=O)N[C@@H](CC(=O)O)C(=O)N[C@@H]1C(=O)NCC(=O)N[C@@H](CCCN)C(=O)N[C@@H](CC(=O)O)C(=O)N[C@H](C)C(=O)N[C@@H](CC(=O)O)C(=O)NCC(=O)N[C@H](CO)C(=O)N[C@@H]([C@H](C)CC(=O)O)C(=O)N[C@@H](CC(=O)c2ccccc2N)C(=O)O[C@@H]1C [Compound 3]	0.5	4	32	1	0.5	1	1	–	–	–	–
C[C@H](CC(=O)O)[C@@H]1NC(=O)[C@@H](CO)NC(=O)CNC(=O)[C@H](CC(=O)O)NC(=O)[C@@H](C)NC(=O)[C@H](CC(=O)O)NC(=O)[C@H](CCCN)NC(=O)CNC(=O)[C@@H](NC(=O)[C@H](CC(=O)O)NC(=O)[C@@H](CC(N)=O)NC(=O)[C@H](Cc2c[nH]c3ccccc23)NC(=O)c2ccc(-c3ccc(Cl)cc3)cc2)[C@@H](C)OC(=O)[C@H](CC(=O)c2ccccc2N)NC1=O [Compound 68]	4	>32	>32	–	16	16	32	16	–	–	–
CC(C)Sc1ccc(-c2csc(C(=O)N[C@@H](Cc3c[nH]c4ccccc34)C(=O)N[C@H](CC(N)=O)C(=O)N[C@@H](CC(=O)O)C(=O)N[C@@H]3C(=O)NCC(=O)N[C@@H](CCCN)C(=O)N[C@@H](CC(=O)O)C(=O)N[C@H](C)C(=O)N[C@@H](CC(=O)O)C(=O)NCC(=O)N[C@H](CO)C(=O)N[C@@H]([C@H](C)CC(=O)O)C(=O)N[C@@H](CC(=O)c4ccccc4N)C(=O)O[C@@H]3C)c2)cc1 [Compound 55]	0.5	8	>32	0.25	2	2	4	–	–	–	–
CCCCCCCCCOc1ccc(C(=O)N[C@@H](Cc2c[nH]c3ccccc23)C(=O)N[C@H](CC(N)=O)C(=O)N[C@@H](CC(=O)O)C(=O)N[C@@H]2C(=O)NCC(=O)N[C@@H](CCCN)C(=O)N[C@@H](CC(=O)O)C(=O)N[C@H](C)C(=O)N[C@@H](CC(=O)O)C(=O)NCC(=O)N[C@H](CO)C(=O)N[C@@H]([C@H](C)CC(=O)O)C(=O)N[C@@H](CC(=O)c3ccccc3N)C(=O)O[C@@H]2C)cc1 [Compound 37]	–	2	2	–	–	–	0.25	1	0.25	0.5	0.5
CC(C)C1CCC(CCCC(=O)N[C@@H](Cc2c[nH]c3ccccc23)C(=O)N[C@H](CC(N)=O)C(=O)N[C@@H](CC(=O)O)C(=O)N[C@@H]2C(=O)NCC(=O)N[C@@H](CCCN)C(=O)N[C@@H](CC(=O)O)C(=O)N[C@H](C)C(=O)N[C@@H](CC(=O)O)C(=O)NCC(=O)N[C@H](CO)C(=O)N[C@@H]([C@H](C)CC(=O)O)C(=O)N[C@@H](CC(=O)c3ccccc3N)C(=O)O[C@@H]2C)CC1 (some centres unmarked) [Compound 21]	0.063	–	32	1	0.25	–	2	–	–	–	–
CCCCCc1ccc(C(=O)N[C@@H](Cc2c[nH]c3ccccc23)C(=O)N[C@H](CC(N)=O)C(=O)N[C@@H](CC(=O)O)C(=O)N[C@@H]2C(=O)NCC(=O)N[C@@H](CCCN)C(=O)N[C@@H](CC(=O)O)C(=O)N[C@H](C)C(=O)N[C@@H](CC(=O)O)C(=O)NCC(=O)N[C@H](CO)C(=O)N[C@@H]([C@H](C)CC(=O)O)C(=O)N[C@@H](CC(=O)c3ccccc3N)C(=O)O[C@@H]2C)cc1 [Compound 31]	4	>32	>32	4	16	16	>32	–	–	–	–
CCCCOc1ccc(-c2ccc(C(=O)N[C@@H](Cc3c[nH]c4ccccc34)C(=O)N[C@H](CC(N)=O)C(=O)N[C@@H](CC(=O)O)C(=O)N[C@@H]3C(=O)NCC(=O)N[C@@H](CCCN)C(=O)N[C@@H](CC(=O)O)C(=O)N[C@H](C)C(=O)N[C@@H](CC(=O)O)C(=O)NCC(=O)N[C@H](CO)C(=O)N[C@@H]([C@H](C)CC(=O)O)C(=O)N[C@@H](CC(=O)c4ccccc4N)C(=O)O[C@@H]3C)cc2)cc1 [Compound 60]	1	16	>32	4	4	4	8	–	–	–	–
C[C@H](CC(=O)O)[C@@H]1NC(=O)[C@@H](CO)NC(=O)CNC(=O)[C@H](CC(=O)O)NC(=O)[C@@H](C)NC(=O)[C@H](CC(=O)O)NC(=O)[C@H](CCCN)NC(=O)CNC(=O)[C@@H](NC(=O)[C@H](CC(=O)O)NC(=O)[C@@H](CC(N)=O)NC(=O)[C@H](Cc2c[nH]c3ccccc23)NC(=O)Cc2ccc(-c3ccc(Cl)cc3)cc2)[C@@H](C)OC(=O)[C@H](CC(=O)c2ccccc2N)NC1=O [Compound 65]	2	>32	>32	2	8	8	16	–	–	–	–
CC(C)CCCCCCC(=O)N[C@@H](Cc1c[nH]c2ccccc12)C(=O)N[C@H](CC(N)=O)C(=O)N[C@@H](CC(=O)O)C(=O)N[C@@H]1C(=O)NCC(=O)N[C@@H](CCCN)C(=O)N[C@@H](CC(=O)O)C(=O)N[C@H](C)C(=O)N[C@@H](CC(=O)O)C(=O)NCC(=O)N[C@H](CO)C(=O)N[C@@H]([C@H](C)CC(=O)O)C(=O)N[C@@H](CC(=O)c2ccccc2N)C(=O)O[C@@H]1C [Compound 9]	0.5	32	>32	0.5	4	4	8	–	–	–	–
CCCCCC1CCC([C@H]2CC[C@H](C(=O)N[C@@H](Cc3c[nH]c4ccccc34)C(=O)N[C@H](CC(N)=O)C(=O)N[C@@H](CC(=O)O)C(=O)N[C@@H]3C(=O)NCC(=O)N[C@@H](CCCN)C(=O)N[C@@H](CC(=O)O)C(=O)N[C@H](C)C(=O)N[C@@H](CC(=O)O)C(=O)NCC(=O)N[C@H](CO)C(=O)N[C@@H]([C@H](C)CC(=O)O)C(=O)N[C@@H](CC(=O)c4ccccc4N)C(=O)O[C@@H]3C)CC2)CC1 (some centres unmarked) [Compound 20]	0.5	–	4	2	0.5	–	8	–	–	–	–
